SMILES | melting point [°C]
CCNC(=O)N1CCCc2cc3c(c(C)c21)CCNCC3.O=C(O)C(=O)O | 170 to 171
O=C(O)CCC(=O)O.c1ccc(OCCN2CCOc3cc4c(cc32)CCNCC4)cc1 | 132 to 134
O=C(O)/C=C/C(=O)O.c1nc(CN2CCOc3cc4c(cc32)CCNCC4)cs1 | 134 to 138
COCCN1CCOc2cc3c(c(-c4ccccc4)c21)CCNCC3.O=C(O)/C=C/C(=O)O | 199 to 201
COCCN1C(=O)CCc2cc3c(c(Br)c21)CCNCC3.O=C(O)/C=C/C(=O)O | 99 to 104
CC(C)COC(=O)N1CCCc2cc3c(cc21)CCNCC3.Cl | 202 to 207
CCCN1C(=O)CCc2cc3c(cc21)CCNCC3.Cl | 125 to 129
Cl.O=C1CCc2cc3c(cc2N1Cc1ccccc1)CCNCC3 | 177 to 180
CC(C)CN1C(=O)CCc2cc3c(cc21)CCNCC3.O=C(O)CCC(=O)O | 142 to 144
COCCCN1C(=O)CCc2cc3c(c(Br)c21)CCNCC3.O=C(O)/C=C/C(=O)O | 153 to 155
CCCN1C(=O)CCc2cc3c(c(-c4ccccc4)c21)CCNCC3.O=C(O)CCC(=O)O | 196 to 200
COc1cccc(CN2C(=O)COc3cc4c(cc32)CCNCC4)c1.O=C(O)CCC(=O)O | 188 to 189
O=C(O)CCC(=O)O.O=C1COc2cc3c(cc2N1Cc1cccc(Cl)c1)CCNCC3 | 192 to 194
CCCN1C(=O)CCc2cc3c(c(C4CC4)c21)CCNCC3.O=C(O)CCC(=O)O | 170 to 171
COc1ccc(CN2C(=O)COc3cc4c(cc32)CCNCC4)cc1.O=C(O)CCC(=O)O | 173 to 176
O=C(O)CCC(=O)O.O=C1COc2cc3c(cc2N1Cc1ccccc1Cl)CCNCC3 | 119 to 127
O=C(O)CCC(=O)O.O=C(OCCc1ccccc1Cl)N1CCCc2cc3c(cc21)CCNCC3 | 187 to 188
CCN1CCOc2cc3c(c(C4CC4)c21)CCNCC3.O=C(O)/C=C/C(=O)O | 174 to 177
CCCN1CCOc2cc3c(c(C4CC4)c21)CCNCC3.O=C(O)/C=C/C(=O)O | 138 to 141
O=C(O)/C=C/C(=O)O.OCCN1CCOc2cc3c(c(C4CC4)c21)CCNCC3 | 146 to 150
COCCN1CC(C)Oc2cc3c(c(C4CC4)c21)CCNCC3.O=C(O)/C=C/C(=O)O (centres unmarked) | 102 to 103
CCOC(=O)N1CCCc2cc3c(c(Br)c21)CCNCC3.O=C(O)C(=O)O | 187 to 189

SMILES | melting point [°C]
O=C(O)C(=O)O.O=C(OCCc1ccccc1)N1CCCc2cc3c(c(Br)c21)CCNCC3 | 176 to 177
CN1CCC(C)(C)c2cc3c(cc21)CCNCC3.O=C(O)/C=C/C(=O)O | 197 to 200
FC(F)(F)c1cccc(CN2CCOc3cc4c(cc32)CCNCC4)c1.O=C(O)/C=C/C(=O)O | 141 to 146
COCCN1CCC(C)(C)c2cc3c(cc21)CCNCC3.O=C(O)/C=C/C(=O)O | 172 to 175
O=C(O)CCC(=O)O.O=C(OCCc1ccccc1)N1CCOc2cc3c(cc21)CCNCC3 | 185 to 187
COCCN1CCOc2cc3c(c(-c4ccccc4F)c21)CCNCC3.O=C(O)/C=C/C(=O)O | 179 to 182
O=C(O)CCC(=O)O.O=C(OCCc1ccccc1Cl)N1CCOc2cc3c(cc21)CCNCC3 | 169 to 170
O=C(O)CCC(=O)O.O=C(OCCc1cccc(Cl)c1)N1CCOc2cc3c(cc21)CCNCC3 | 160 to 162
COc1ccccc1CCOC(=O)N1CCOc2cc3c(cc21)CCNCC3.O=C(O)CCC(=O)O | 158 to 160
COc1cccc(CCOC(=O)N2CCOc3cc4c(cc32)CCNCC4)c1.O=C(O)CCC(=O)O | 134 to 136
COCCN1CCOc2cc3c(c(C=C(C)C)c21)CCNCC3.O=C(O)/C=C/C(=O)O | 173 to 176
O=C(O)CCC(=O)O.O=C(OCCc1ccccc1F)N1CCOc2cc3c(cc21)CCNCC3 | 186 to 187
O=C(O)CCC(=O)O.O=C(OCCc1cccc(F)c1)N1CCOc2cc3c(cc21)CCNCC3 | 162 to 164
O=C(O)CCC(=O)O.O=C(OCCc1ccc(F)cc1)N1CCOc2cc3c(cc21)CCNCC3 | 179 to 181
COCCN1C(=O)C(C)(C)Oc2cc3c(cc21)CCNCC3.O=C(O)/C=C/C(=O)O | 175 to 176
Cl.FC(F)(F)CN1CCOc2cc3c(cc21)CCNCC3 | 221 to 222
Cl.FC(F)(F)CN1CCOc2cc3c(c(Br)c21)CCNCC3 | 214 to 215
Cl.FC(F)(F)CN1CCOc2c1cc1c(c2Br)CCNCC1 | 216 to 221
COCCN1c2cc3c(cc2CCC1(C)C)CCNCC3.O=C(O)/C=C/C(=O)O | 156 to 158
CC(COC(=O)N1CCOc2cc3c(cc21)CCNCC3)c1ccccc1.O=C(O)CCC(=O)O (centres unmarked) | 177 to 179
CC(Cc1ccccc1)OC(=O)N1CCOc2cc3c(cc21)CCNCC3.O=C(O)CCC(=O)O (centres unmarked) | 85 to 87
O=C(O)CCC(=O)O.O=C(OCCc1ccccc1)N1CCOc2c1cc1c(c2Br)CCNCC1 | 142 to 143

SMILES | melting point [°C]
COCCN1CCOc2c1cc1c(c2Cl)CCNCC1.O=C(O)CCC(=O)O | 139 to 141
CCOC(=O)N1CCOc2c1cc1c(c2Cl)CCNCC1.O=C(O)CCC(=O)O | 145 to 147
O=C(O)CCC(=O)O.O=C(OCCc1ccccc1)N1CCOc2c1cc1c(c2C2CC2)CCNCC1 | 142 to 144
COCC(F)(F)CN1CCOc2cc3c(cc21)CCNCC3.Cl | 172 to 173
COCC(F)(F)CN1CCOc2cc3c(c(C4CC4)c21)CCNCC3.O=C(O)/C=C/C(=O)O | 163 to 165
COCCN1c2cc3c(cc2OC[C@H]1C)CCNCC3.O=C(O)/C=C/C(=O)O | 133 to 136
COCCN1c2cc3c(cc2OC[C@@H]1C)CCNCC3.O=C(O)/C=C/C(=O)O | 131 to 134
O=C(O)CCC(=O)O.O=C(OCCc1ccccc1)N1CCOc2c1cc1c(c2-c2ccccc2)CCNCC1 | 169 to 171
CCCc1c2c(cc3c1OCCN3C(=O)OCCc1ccccc1)CCNCC2.O=C(O)/C=C/C(=O)O | 134 to 136
O=C(O)/C=C/C(=O)O.O=C(OCCc1ccccc1)N1CCOc2c1cc1c(c2-c2cccs2)CCNCC1 | 215 to 216
CO[C@@H](C)CN1CCOc2cc3c(c(C4CC4)c21)CCNCC3.O=C(O)/C=C/C(=O)O | 135 to 138
C[C@H](F)CN1CCOc2cc3c(c(C4CC4)c21)CCNCC3.O=C(O)/C=C/C(=O)O | 171 to 173
CN1CCOc2cc3c(c(-c4cccs4)c21)CCNCC3.O=C(O)/C=C/C(=O)O | 248 to 252
COC[C@H](CN1CCOc2cc3c(c(C4CC4)c21)CCNCC3)OC.O=C(O)/C=C/C(=O)O | 150 to 154
CCCC1CN(C)c2cc3c(cc2O1)CCNCC3.O=C(O)/C=C/C(=O)O (centres unmarked) | 152 to 153
COC[C@@H](CN1CCOc2cc3c(c(C4CC4)c21)CCNCC3)OC.O=C(O)/C=C/C(=O)O | 156 to 158
COCCCN1CCOc2cc3c(c(C)c21)CCNCC3.O=C(O)/C=C/C(=O)O | 160 to 163
CCOCCN1CCOc2cc3c(c(C)c21)CCNCC3.O=C(O)/C=C/C(=O)O | 152 to 155
Cc1c2c(cc3c1N(CCCF)CCO3)CCNCC2.O=C(O)/C=C/C(=O)O | 187 to 190
O=C(O)/C=C/C(=O)O.c1c2c(c(C3CC3)c3c1OCCN3CC1CCOC1)CCNCC2 (centres unmarked) | 117 to 118
Cc1c2c(cc3c1N(C[C@H](C)F)CCO3)CCNCC2.O=C(O)/C=C/C(=O)O | 165 to 168
O=C(O)CCC(=O)O.c1ccc(CN2CCOc3cc4c(c(C5CC5)c32)CCNCC4)cc1 | 107 to 110

SMILES | melting point [°C]
Clc1ccccc1CN1CCOc2cc3c(c(C4CC4)c21)CCNCC3.O=C(O)CCC(=O)O | 106 to 109
Fc1cccc(CN2CCOc3cc4c(c(C5CC5)c32)CCNCC4)c1.O=C(O)CCC(=O)O | 102 to 105
CCOCCN1CCOc2cc3c(c(CC)c21)CCNCC3.O=C(O)/C=C/C(=O)O | 179 to 181
FC(F)CN1CCOc2cc3c(c(C4CC4)c21)CCNCC3.O=C(O)/C=C/C(=O)O | 198 to 201
FC1(F)Oc2ccc(CN3CCOc4cc5c(c(C6CC6)c43)CCNCC5)cc2O1.O=C(O)/C=C/C(=O)O | 161 to 164
O=C(O)/C=C/C(=O)O.c1cc(CN2CCOc3cc4c(c(C5CC5)c32)CCNCC4)c2c(c1)OCCO2 | 184 to 187
CC1(C)CC(=O)Nc2cc3c(cc21)CCNCC3.Cl | 270 to 272
CC1(C)CCc2cc3c(cc2N1)CCNCC3 | 270 to 273
Fc1cccc(CN2CCOc3cc4c(c(C5CC5)c32)CCNCC4)c1F.O=C(O)/C=C/C(=O)O | 157 to 159
Fc1c(Cl)cccc1CN1CCOc2cc3c(c(C4CC4)c21)CCNCC3.O=C(O)/C=C/C(=O)O | 181 to 184
COc1cc(OCCN2CCOc3cc4c(c(C5CC5)c32)CCNCC4)c(F)cc1C#N.O=C(O)/C=C/C(=O)O | 125 to 128
COc1ccc(F)cc1CN1CCOc2cc3c(c(C4CC4)c21)CCNCC3.O=C(O)/C=C/C(=O)O | 189 to 192
COc1ccc(Cl)cc1CN1CCOc2cc3c(c(C4CC4)c21)CCNCC3.O=C(O)/C=C/C(=O)O | 193 to 196
COCC(CN1CCOc2cc3c(c(C4CC4)c21)CCNCC3)Oc1ccccc1F.O=C(O)/C=C/C(=O)O (centres unmarked) | 132 to 133
COCC(CN1CCOc2cc3c(c(C4CC4)c21)CCNCC3)Oc1ccc(F)cc1.O=C(O)/C=C/C(=O)O (centres unmarked) | 138 to 140
COCC(CN1CCOc2cc3c(c(C4CC4)c21)CCNCC3)Oc1ccc(F)cc1F.O=C(O)/C=C/C(=O)O (centres unmarked) | 150 to 151
CCOCc1cc(F)c(OCCN2CCOc3cc4c(c(C5CC5)c32)CCNCC4)c(F)c1.O=C(O)/C=C/C(=O)O | 138 to 139
Clc1cccc(-c2c3c(cc4c2NCCC4)CCNCC3)c1.O=C(O)/C=C/C(=O)O | 159 to 162
COCCN1C(=O)CCc2cc3c(cc21)CCNCC3.O=C(O)/C=C/C(=O)O | 164 to 166
CCNC(=O)N1CCCc2cc3c(cc21)CCNCC3.O=C(O)/C=C/C(=O)O | 174 to 176

Reference: patent US9598434B2, “Benzazepine compound” (Astellas Pharma Inc., priority 2010, dated 2017)
